Assay results: ChEMBL document CHEMBL6074680, “Structure-Based Discovery of a Series of Covalent, Orally Bioavailable, and Selective BFL1 Inhibitors” (J Med Chem, 2024)

How the values were obtained:
BCL2A1/BID = target: T1, BCL2A1/BID (Homo sapiens, UniProt Q16548); assay: Inhibition of BFL-1/ BH3 (unknown origin) interaction incubated for 2 hrs by TR-FRET assay; assay type: protein assay
T1 sequence (Q16548 whole entry): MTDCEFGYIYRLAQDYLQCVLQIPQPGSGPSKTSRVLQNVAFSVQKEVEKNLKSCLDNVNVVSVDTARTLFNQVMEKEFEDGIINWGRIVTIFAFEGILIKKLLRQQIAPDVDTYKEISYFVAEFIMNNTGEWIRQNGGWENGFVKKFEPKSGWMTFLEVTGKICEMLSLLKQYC
T1 sequence (P55957 whole entry): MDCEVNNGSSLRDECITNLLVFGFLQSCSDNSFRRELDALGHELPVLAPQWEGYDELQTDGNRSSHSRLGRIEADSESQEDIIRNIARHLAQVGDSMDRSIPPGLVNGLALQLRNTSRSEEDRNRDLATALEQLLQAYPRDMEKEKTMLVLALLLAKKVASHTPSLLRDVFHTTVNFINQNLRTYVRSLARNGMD

SU-DHL-1 [1] = assay: Induction of apoptosis in human SU-DHL-1 cells assessed as caspase activation in presence of AZD5991 incubated for 6 hrs by caspaseGlo 3/7 reagent based assay; assay type: functional, cell-based; details: SU-DHL-1, 6 h
[2] = Lipophilicity, log D of compound in 1-octanol at pH 7.4 incubated for 4 hrs by HPLC-UV analysis; assay type: physicochemical; details: 1-octanol / aqueous phase at pH 7.4, pH 7.4
Bcl-2-like protein 1 = Bcl-2-like protein 1 (Homo sapiens, UniProt Q07817); assay: Inhibition of Bcl-Xl (unknown origin) by FRET assay
SU-DHL-1 [3] = assay: Antiproliferative activity against human SU-DHL-1 cells assessed as cell viability incubated for 24 hrs by celltiter-glo assay; assay type: functional, cell-based; details: SU-DHL-1, 24 h
[4] = Metabolic stability in mouse hepatocytes assessed as intrinsic clearance measured per 10^6 cells; assay type: ADME, cell-based, Hepatocyte; details: read-out: CLH
[5] = Metabolic stability in human hepatocytes assessed as intrinsic clearance measured per 10^6 cells; assay type: ADME, cell-based, Hepatocyte; details: read-out: CLH
[6] = Metabolic stability in rat hepatocytes assessed as intrinsic clearance measured per 10^6 cells; assay type: ADME, cell-based, Hepatocyte; details: rat hepatocytes, read-out: CLH
[7] = target: Apoptosis regulator Bcl-2 (Homo sapiens, UniProt P10415); assay: Inhibition of BCL2 (unknown origin) by FRET assay
[8] = target: Induced myeloid leukemia cell differentiation protein Mcl-1 (Homo sapiens, UniProt Q07820); assay: Inhibition of MCL1 (unknown origin) by FRET assay
[9] = Volume of distribution at steady state in CD-1 mouse at 1 mg/kg, po or 0.5 mg/kg, iv measured upto 24 hrs by LC-MS/MS analysis; assay type: ADME, organism-based; details: in vivo
[10] = Half life in CD-1 mouse at 1 mg/kg, po or 0.5 mg/kg, iv measured upto 24 hrs by LC-MS/MS analysis; assay type: ADME, organism-based; details: in vivo
[11] = Plasma protein binding in mouse assessed as unbound fraction; assay type: ADME, cell-free
[12] = Apparent permeability across apical to basolateral side in human Caco-2 cells measured upto 120 mins by LC-MS/MS analysis; assay type: ADME, cell-based

Chain of Induced myeloid leukemia cell differentiation protein Mcl-1 (Q07820 whole entry): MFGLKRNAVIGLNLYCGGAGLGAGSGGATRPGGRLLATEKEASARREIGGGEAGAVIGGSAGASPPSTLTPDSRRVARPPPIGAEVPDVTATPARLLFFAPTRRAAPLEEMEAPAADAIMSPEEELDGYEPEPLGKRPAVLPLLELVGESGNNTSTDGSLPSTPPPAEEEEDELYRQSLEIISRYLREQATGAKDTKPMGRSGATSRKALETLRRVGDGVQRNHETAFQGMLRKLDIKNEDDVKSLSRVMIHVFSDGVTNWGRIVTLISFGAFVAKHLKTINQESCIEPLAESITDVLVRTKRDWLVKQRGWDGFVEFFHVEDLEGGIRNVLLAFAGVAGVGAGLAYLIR
Chain of Bcl-2-like protein 1 (Q07817 whole entry): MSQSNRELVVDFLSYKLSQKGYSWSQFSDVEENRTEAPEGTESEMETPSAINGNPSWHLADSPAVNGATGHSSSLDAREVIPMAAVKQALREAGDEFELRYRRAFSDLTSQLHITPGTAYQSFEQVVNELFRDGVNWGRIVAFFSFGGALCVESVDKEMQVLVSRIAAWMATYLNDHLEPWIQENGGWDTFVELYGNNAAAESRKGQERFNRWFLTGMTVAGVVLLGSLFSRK
Chain of Apoptosis regulator Bcl-2 (P10415 whole entry): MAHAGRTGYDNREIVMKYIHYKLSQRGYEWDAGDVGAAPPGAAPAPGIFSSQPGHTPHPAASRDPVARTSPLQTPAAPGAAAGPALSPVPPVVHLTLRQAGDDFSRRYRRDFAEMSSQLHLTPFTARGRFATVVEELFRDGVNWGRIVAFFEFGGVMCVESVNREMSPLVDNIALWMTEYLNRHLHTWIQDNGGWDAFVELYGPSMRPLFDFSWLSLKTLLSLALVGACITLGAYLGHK

Row | IC50 (BCL2A1/BID) [nM] | EC50 (SU-DHL-1 [1]) [nM] | Compound | further results
1 | 2800 | > 10000 | C=CC(=O)N(c1ccc(O[C@@H]2CC[C@@H](N)C2)cc1)[C@H](CNS(C)(=O)=O)c1ccc(Cl)cc1 | 
2 | 40 | 110 | C=CC(=O)N(c1ccc(O[C@@H]2CC[C@@H](NC(=O)NC3CCS(=O)(=O)C3)C2)cc1)[C@@H](C)c1ccc(Cl)cc1 (mixture of isomers) | 
3 | 24 | 120 | C=CC(=O)N(c1ccc(O[C@@H]2CC[C@@H](N)C2)c(Cl)c1)[C@@H](C)c1ccc(Cl)cc1 | 
4 | 6500 |  | CNS(=O)(=O)OCC(=O)N(Cc1ccc(Cl)cc1)c1ccc(O[C@@H]2CC[C@@H](N)C2)cc1 | 
5 | 33 | 120 | C=CC(=O)N(c1ccc(O[C@@H]2CC[C@@H](N)C2)cc1)[C@H](c1ccc(Cl)cc1)c1cncnc1 | 
6 | > 10000 |  | C=C(C)C(=O)N(Cc1ccc(C(F)(F)F)cc1)c1ccc(O[C@@H]2CC[C@@H](N)C2)cc1 (racemic) | 
7 | 48 | 410 | C=CC(=O)N(c1ccc(O[C@@H]2CC[C@@H](N)C2)cc1F)[C@@H](C)c1ccc(Cl)cc1 | 
8 | 8.5 | 52 | C[C@@H](c1ccc(Cl)cc1)N(C(=O)/C=C/CN(C)C)c1ccc(O[C@@H]2CC[C@@H](NC(=O)N[C@@H]3CCS(=O)(=O)C3)C2)c(F)c1 | logD at 4 h [2]: 2.5; IC50 (Bcl-2-like protein 1): > 30000 nM; EC50 (SU-DHL-1 [3]): 110 nM; hepatocyte CLint [4]: 17 µL/min/1e6 cells; hepatocyte CLint [5]: 1.5 µL/min/1e6 cells; hepatocyte CLint [6]: 28 µL/min/1e6 cells; IC50 [7]: > 30000 nM
9 | > 7800 |  | C=C(F)C(=O)N(Cc1ccc(C(F)(F)F)cc1)c1ccc(O[C@@H]2CC[C@@H](N)C2)cc1 (racemic) | 
10 | 880 | 2400 | C=CC(=O)N(c1ccc(O[C@@H]2CC[C@@H](N)C2)cc1OC)[C@@H](C)c1ccc(Cl)cc1 | 
11 | 31 | 350 | C=CC(=O)N(c1ccc(O[C@@H]2CC[C@@H](N)C2)cc1)[C@@H](CNS(C)(=O)=O)c1ccc(Cl)cc1 | IC50 [8]: > 100000 nM
12 | 33 | 520 | C=CC(=O)N(c1ccc(O[C@@H]2CC[C@@H](N)C2)cc1)[C@@H](CC(C)(C)O)c1ccc(Cl)cc1 | IC50 [8]: > 100000 nM
13 | 17 | 90 | C=CC(=O)N(c1ccc(O[C@@H]2CC[C@@H](N)C2)cc1)[C@@H](CCNS(C)(=O)=O)c1ccc(Cl)cc1 | EC50 (SU-DHL-1 [3]): 130 nM
14 | 300 |  | CC#CC(=O)N(c1ccc(O[C@@H]2CC[C@@H](N)C2)cc1)[C@@H](C)c1ccc(Cl)cc1 | 
15 | 4.5 | 28 | C=CC(=O)N(c1ccc(O[C@@H]2CC[C@@H](NC(=O)NCCN(C)C)C2)c(Cl)c1)[C@@H](C)c1ccc(Cl)cc1 | logD at 4 h [2]: 3.5; EC50 (SU-DHL-1 [3]): 72 nM; hepatocyte CLint [4]: 42 µL/min/1e6 cells; hepatocyte CLint [5]: 9.8 µL/min/1e6 cells; hepatocyte CLint [6]: 17 µL/min/1e6 cells
16 | 10 | 110 | C[C@@H](c1ccc(Cl)cc1)N(C(=O)/C=C/CN(C)C)c1ccc(O[C@@H]2CC[C@@H](NC(=O)NC3CS(=O)(=O)C3)C2)c(F)c1 | logD at 4 h [2]: 2.7; IC50 (Bcl-2-like protein 1): > 30000 nM; EC50 (SU-DHL-1 [3]): 110 nM; hepatocyte CLint [4]: 23 µL/min/1e6 cells; Vdss [9]: 4.6 L/kg; half-life [10]: 2.7 h; hepatocyte CLint [5]: 2.6 µL/min/1e6 cells; fraction unbound [11]: 0.085; IC50 [7]: > 30000 nM; Papp A→B at 2 h [12]: < 11 ×10⁻⁶ cm/s
17 | 4.2 | 19 | C=CC(=O)N(c1ccc(O[C@@H]2CC[C@@H](NC(=O)N[C@@H]3CCS(=O)(=O)C3)C2)c(F)c1)[C@@H](CC(C)(C)O)c1ccc(Cl)cc1 | logD at 4 h [2]: 3.1; EC50 (SU-DHL-1 [3]): 49 nM; hepatocyte CLint [4]: 49 µL/min/1e6 cells; hepatocyte CLint [5]: 5.3 µL/min/1e6 cells; hepatocyte CLint [6]: 52 µL/min/1e6 cells
18 |  | 450 | C=CC(=O)N(c1ccc(O[C@@H]2CC[C@@H](N)C2)cc1)[C@@H](COC)c1ccc(Cl)cc1 | IC50 [8]: > 100000 nM
